In article PMC4747398, “Isothiocyanatostilbenes as novel c-Met inhibitors” (Oncotarget, 2015):
pIC50: −log10 of the molar value. Where two headings read alike, the source gives them in different places.

Tests used:
c-Met [1] = biological target: T1, c-Met (Homo sapiens, UniProt P08581); experiment: HGF-induced c-Met phosphorylation, western blot, DU145; type: cell-based; set-up: endogenous in cells; host or cells: DU145; details: for effective concentration for c-Met inhibition in 10% FBS versus serum-free: DU145, 33 ng/ml HGF 20 minutes, 10% FBS RPMI; for reduction of c-Met activation: 8 μM compound, western blot densitometry
Procedure: (§1) Cells were grown to ~70% confluency prior to treatment. Cells were serum-starved in serum-free media for 30 minutes prior to treatment in complete media or serum-free media for the indicated times. Cell lysates were collected in Laemmli (125 mM Tris, 4% SDS, 0.01% bromophenol blue, 30% sucrose) containing 0.5% β-mercaptoethanol and boiled ~8 minutes. Primary antibodies include: phospho-c-Met (Y1234/1235), phospho-Akt (S473), pEGFR (S845), pIGF-IRβ (Y1135/1136) (Cell Signaling Technology; Beverly, MA); α-actin (Sigma-Aldrich), c-Met (C-28) (Life Technologies). Secondary antibodies include: horseradish peroxidase-conjugated anti-rabbit and anti-mouse (GE Healthcare; Pittsburgh, PA). ECL 2 was used for chemiluminescent detection (Thermo Scientific; Rockford, IL). Densitometry was calculated using ImageJ (NIH).

[2] = 2D proliferation (Cell Titer Blue); type: cell-based; details: up to 72 hours; for effect on serum-free proliferation (2D): serum-free RPMI
Procedure: Cells were seeded to ~30% confluency prior to treatment with DIDS or H2DIDS at 0.5 μM, 2 μM, 8 μM, 32 μM, or 64 μM for 24 hours, 48 hours, or 72 hours in complete or serum-free RPMI. A T0 timepoint was also measured. For each timepoint, cells were exposed to Cell Titer Blue reagent (Promega) for 1 hour at 37°C 5% CO2. Experiments were performed with quadruplicate replicates. Fluorescence was measured using a BioTek Synergy 4 plate reader with Gen5 software.

DU145 cells [3] = experiment: HGF-induced wound healing; type: cell-based; details: DU145, 33 ng/ml HGF, 4 μM DIDS or 25 μM H2DIDS
Procedure: (§2) DU145 cells were grown to ~100% confluency prior to wounding with the IncuCyte™ WoundMaker™ (Essen Bioscience; Ann Arbor, MI) and washed once with complete media. For invasion, cells were covered with Matrigel diluted 1:5 in serum-free RPMI following wounding. Cells were treated with 4 μM DIDS or 25 μM H2DIDS with or without 33 ng/ml HGF or 100 ng/ml EGF for up to 4 days. Images were taken every 4 hours with the IncuCyte™ ZOOM imaging system (Essen Bioscience). Quadruplicate replicates were used in each experiment. Data are presented as percent wound density ± standard error of the mean (S.E.M.).

wild-type c-Met = wild-type c-Met (Homo sapiens, UniProt P08581); experiment: Z'-LYTE kinase phosphorylation inhibition assay, wild-type c-Met; type: biochemical
Procedure: (§3) Z'-LYTE™ Kinase Assay-Tyr6 Peptide kit (Invitrogen) was used to assess the ability of tested compounds to inhibit c-Met phosphorylation. Briefly, 20 μl/well reactions were set up in 96-well plates containing kinase buffer, 200 μM ATP, 4 μM Z-LYTE™ Tyr6 Peptide substrate, 2500 ng/ml c-Met kinase and DIDS or H2DIDS at various concentrations. After 1 hour incubation at room temperature, 10 μl development solution containing site-specific protease was added to each well. Incubation was continued for 1 hour. The reaction was then stopped, and the fluorescent signal ratio of 445 nm (coumarin)/520 nm (fluorescein) was determined on a plate reader (BioTek FLx800™), which reflects the peptide substrate cleavage status and/or the kinase inhibitory activity in the reaction. […] The IC50 value for each compound was calculated by nonlinear regression of log concentration versus % c-Met phosphorylation ± S.E.M., implemented in GraphPad Prism version 5.0 (GraphPad Software, CA, USA).

IGFR = biological target: T2, IGFR (Homo sapiens, UniProt P08069); experiment: IGF-induced IGFR activation, western blot, DU145; type: cell-based; details: DU145, 100 ng/ml IGF 20 minutes, 4 μM DIDS or 25 μM H2DIDS
T2 construct: endogenous in cells; host or cells: DU145
Procedure: as §1

c-Met [4] = biological target: T1, c-Met; experiment: Washout and reversal of c-Met phosphorylation in DU145, western blot; type: cell-based; set-up: endogenous in cells; host or cells: DU145; details: wash
Procedure: as §1

DU145 spheroids = experiment: 3D spheroid proliferation in Matrigel; type: cell-based; details: 5 μM compound, 33 ng/ml HGF, 72 hours
Procedure: Prior to seeding, cells were incubated with 2.5 ng/μl CellTracker Red (Life Technologies) in complete DMEM lacking Phenol Red for 5 minutes at room temperature then centrifuged at 1000 RPM for 5 minutes. Dyed cells were resuspended in complete DMEM lacking Phenol Red and containing 5% Matrigel before adding 5 μM, 10 μM, 20 μM, or 40 μM DIDS or H2DIDS +/− HGF. The mixture of cells, treatments, and Matrigel in complete media was seeded at 2000 cells/well in a 96 well plate. The plate was centrifuged at 1000 RPM for 3 minutes to collect the cells into the bottom of the plate. Spheroid growth was imaged for up to 80 hours and analyzed for average red object area using the IncuCyte™ ZOOM software. […] Images were captured by the IncuCyte™ ZOOM imaging system and representative 10X images are shown.

Akt = experiment: Downstream Akt phosphorylation, western blot, DU145; type: cell-based; details: DU145, serum-free, HGF, ~8 μM compound
Procedure: as §1

DU145 cells [5] = experiment: EGF-induced wound healing; type: cell-based; details: DU145, 100 ng/ml EGF, 4 μM DIDS or 25 μM H2DIDS
Procedure: as §2

DU145 cells [6] = experiment: HGF-induced cell scattering assay; type: cell-based; details: DU145, 33 ng/ml HGF overnight, 4 μM DIDS or 25 μM H2DIDS
Procedure: DU145 cells were grown to ~50% confluency. Cells were treated overnight with 4 μM DIDS or 25 μM H2DIDS in the presence or absence of 33 ng/ml HGF or 100 ng/ml EGF. Cells were fixed with 4% paraformaldehyde and stained with Oregon Green 488 phalloidin (Invitrogen; Carlsbad, CA). Images were acquired on an Eclipse TE300 inverted microscope (Nikon; Tokyo, Japan) with NIS Elements version 4.13.04 software. Presented images were taken using a 10X objective.

[7] = test system: protein translocation across the ER membrane; set-up: method as in PMID 8396042; details: cited from earlier work
c-Met M1250T (M1268T) = c-Met M1250T (M1268T) (Homo sapiens, UniProt P08581, M1250T); experiment: Z'-LYTE kinase phosphorylation inhibition assay, mutant c-Met; type: biochemical; details: 200 μM ATP, cell-free
Procedure: as §3

[8] = Tolerability in xenograft mice; type: in vivo
Procedure: (§4) All animal experiments were approved by the Institutional Animal Care and Use Committee, University of Louisiana at Monroe, and were handled in strict accordance with good animal practice as defined by the NIH guidelines. Athymic nude mice (Foxn1^nu/Foxn1^+, 4–5 weeks, female) were purchased from Harlan (Indianapolis, IN). The mice had free access to standard pellet food and water. The animals were acclimated to animal house facility conditions at a temperature of 18–25°C, with a relative humidity of 55 to 65% and a 12 h light/dark cycle, for one week prior to the experiments. MDA-MB-231/GFP human breast cancer cells were cultured and resuspended in serum-free DMEM medium (20 μl). After anesthesia, cell suspensions (1 × 10^6 cells/20 μl) were inoculated subcutaneously into the second mammary gland fat pad just beneath the nipple of each animal to generate orthotopic breast tumors. […] The mice were monitored by measuring tumor volume, body weight, and clinical observation. Tumor volume (V) was calculated by V = L/2 × W^2, where L was the length and W was the width of tumors. The results are presented as average ± S.E.M. Differences among various treatment groups were determined by the analysis of variance (ANOVA) followed by Dunnett's test using PASW statistics version 18. […]

[9] = test system: MDA-MB-231/GFP human breast cancer cells; experiment: Orthotopic breast tumor xenograft; type: in vivo; details: mice, 5 mg/kg then 10 mg/kg i.p.
Procedure: as §4

DU145 cells [10] = experiment: HGF-induced invasion through Matrigel; type: cell-based; details: DU145, 33 ng/ml HGF, Matrigel diluted 1:5
Procedure: as §2

[11] = test system: matrix metalloproteinase release; set-up: method as in PMID 22937143; details: cited from earlier work
EGFR = biological target: T3, EGFR (Homo sapiens, UniProt P00533); experiment: EGF-induced EGFR activation, western blot, DU145; type: cell-based; details: DU145, 100 ng/ml EGF 20 minutes, 4 μM DIDS or 25 μM H2DIDS
T3 construct: 100 ng/ml EGF b; endogenous in cells; host or cells: DU145
Procedure: as §1

c-Met [12] = biological target: T1, c-Met; experiment: Constitutive pMet in c-Met amplified H1993 cells, western blot; type: cell-based; set-up: endogenous in cells; details: 5 μM compound, no HGF
Procedure: as §1

[13] = DU145, serum-free, 33 ng/ml HGF 20 minutes

wild-type c-Met, sequence (P08581 25-1390): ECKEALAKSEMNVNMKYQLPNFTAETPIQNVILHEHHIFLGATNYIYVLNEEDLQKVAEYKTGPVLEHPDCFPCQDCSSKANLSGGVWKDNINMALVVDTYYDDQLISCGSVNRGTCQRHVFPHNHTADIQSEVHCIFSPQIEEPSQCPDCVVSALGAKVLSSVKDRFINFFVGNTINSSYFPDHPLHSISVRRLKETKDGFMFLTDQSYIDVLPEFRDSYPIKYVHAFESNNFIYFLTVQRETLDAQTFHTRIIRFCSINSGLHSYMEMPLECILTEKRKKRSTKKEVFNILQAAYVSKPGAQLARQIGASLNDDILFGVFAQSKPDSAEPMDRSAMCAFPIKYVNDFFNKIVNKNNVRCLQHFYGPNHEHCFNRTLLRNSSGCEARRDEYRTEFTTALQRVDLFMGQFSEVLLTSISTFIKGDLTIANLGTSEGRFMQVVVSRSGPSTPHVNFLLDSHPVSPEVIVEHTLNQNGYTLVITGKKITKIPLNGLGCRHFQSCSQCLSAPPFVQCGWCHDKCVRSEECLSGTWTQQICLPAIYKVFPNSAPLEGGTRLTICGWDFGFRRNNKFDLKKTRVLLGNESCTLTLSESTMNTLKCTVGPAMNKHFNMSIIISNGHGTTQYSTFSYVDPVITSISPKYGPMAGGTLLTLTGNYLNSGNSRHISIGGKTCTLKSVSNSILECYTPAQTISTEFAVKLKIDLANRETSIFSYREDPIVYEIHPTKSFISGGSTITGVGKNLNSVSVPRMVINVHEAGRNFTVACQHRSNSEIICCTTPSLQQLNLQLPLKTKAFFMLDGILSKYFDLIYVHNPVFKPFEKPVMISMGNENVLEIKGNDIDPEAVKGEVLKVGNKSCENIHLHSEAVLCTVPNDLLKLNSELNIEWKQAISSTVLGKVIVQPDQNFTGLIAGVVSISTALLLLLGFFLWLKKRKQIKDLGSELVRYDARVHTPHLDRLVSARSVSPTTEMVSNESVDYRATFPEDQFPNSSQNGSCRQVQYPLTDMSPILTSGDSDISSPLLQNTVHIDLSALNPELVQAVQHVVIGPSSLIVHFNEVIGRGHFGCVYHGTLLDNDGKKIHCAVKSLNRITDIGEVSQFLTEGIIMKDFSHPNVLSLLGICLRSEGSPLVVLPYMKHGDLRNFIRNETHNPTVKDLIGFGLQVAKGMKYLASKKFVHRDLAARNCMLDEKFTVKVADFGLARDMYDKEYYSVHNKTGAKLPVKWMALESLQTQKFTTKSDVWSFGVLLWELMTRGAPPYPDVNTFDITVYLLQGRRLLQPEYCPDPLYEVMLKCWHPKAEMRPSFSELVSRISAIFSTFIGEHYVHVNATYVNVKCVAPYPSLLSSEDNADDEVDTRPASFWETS
T1 sequence (P08581 25-1390): as above
T2 sequence (P08069 31-1367): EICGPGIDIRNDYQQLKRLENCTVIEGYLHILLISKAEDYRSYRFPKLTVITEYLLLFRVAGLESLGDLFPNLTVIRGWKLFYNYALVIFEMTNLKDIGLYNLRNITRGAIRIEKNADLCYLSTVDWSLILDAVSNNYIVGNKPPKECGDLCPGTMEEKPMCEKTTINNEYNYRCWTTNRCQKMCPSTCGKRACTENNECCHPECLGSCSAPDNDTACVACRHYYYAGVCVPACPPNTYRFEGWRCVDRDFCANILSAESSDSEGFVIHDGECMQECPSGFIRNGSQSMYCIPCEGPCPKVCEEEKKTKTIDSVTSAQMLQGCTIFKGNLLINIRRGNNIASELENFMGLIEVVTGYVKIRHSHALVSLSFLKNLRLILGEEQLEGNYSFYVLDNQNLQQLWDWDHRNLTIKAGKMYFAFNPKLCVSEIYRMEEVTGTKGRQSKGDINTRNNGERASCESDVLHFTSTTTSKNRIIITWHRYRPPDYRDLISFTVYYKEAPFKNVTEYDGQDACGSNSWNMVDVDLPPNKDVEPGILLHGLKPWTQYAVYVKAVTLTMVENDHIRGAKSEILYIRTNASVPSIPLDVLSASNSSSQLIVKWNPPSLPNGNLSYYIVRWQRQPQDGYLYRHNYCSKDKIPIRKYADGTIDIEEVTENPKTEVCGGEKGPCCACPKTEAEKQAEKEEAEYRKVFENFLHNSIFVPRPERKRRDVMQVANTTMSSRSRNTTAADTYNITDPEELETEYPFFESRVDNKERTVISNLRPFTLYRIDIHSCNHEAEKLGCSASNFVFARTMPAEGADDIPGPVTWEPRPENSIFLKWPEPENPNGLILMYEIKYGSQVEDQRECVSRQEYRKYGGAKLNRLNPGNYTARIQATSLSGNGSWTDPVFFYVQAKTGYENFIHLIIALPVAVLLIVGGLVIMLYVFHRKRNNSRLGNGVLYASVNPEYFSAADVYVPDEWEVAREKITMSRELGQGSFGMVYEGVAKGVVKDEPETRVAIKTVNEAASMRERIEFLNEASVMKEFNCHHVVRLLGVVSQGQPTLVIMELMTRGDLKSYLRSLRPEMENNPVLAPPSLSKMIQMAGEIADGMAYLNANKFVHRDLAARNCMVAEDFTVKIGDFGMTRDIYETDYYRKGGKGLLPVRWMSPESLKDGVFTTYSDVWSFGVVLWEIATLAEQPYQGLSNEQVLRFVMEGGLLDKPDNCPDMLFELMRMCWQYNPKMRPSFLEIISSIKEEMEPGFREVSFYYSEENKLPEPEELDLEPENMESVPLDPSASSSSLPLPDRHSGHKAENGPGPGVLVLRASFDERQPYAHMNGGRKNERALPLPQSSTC
c-Met M1250T (M1268T), sequence (P08581 956-1390 M1250T limits assumed): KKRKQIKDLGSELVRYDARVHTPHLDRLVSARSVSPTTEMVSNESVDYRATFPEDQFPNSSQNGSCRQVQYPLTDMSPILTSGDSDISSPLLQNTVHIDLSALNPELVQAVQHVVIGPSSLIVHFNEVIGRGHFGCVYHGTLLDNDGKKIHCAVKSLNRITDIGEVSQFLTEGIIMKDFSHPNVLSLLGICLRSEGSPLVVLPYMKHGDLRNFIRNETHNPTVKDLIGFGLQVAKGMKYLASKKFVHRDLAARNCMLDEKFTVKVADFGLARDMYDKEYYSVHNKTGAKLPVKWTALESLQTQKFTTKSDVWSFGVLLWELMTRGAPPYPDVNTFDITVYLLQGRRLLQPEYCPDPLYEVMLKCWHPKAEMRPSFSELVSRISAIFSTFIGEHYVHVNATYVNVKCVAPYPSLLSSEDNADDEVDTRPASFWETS

Compound | effective concentration for c-Met inhibition in 10% FBS versus serum-free (c-Met [1]) | reduction of c-Met activation (c-Met [1]; [13]) | effect on proliferation in complete media (2D) [2] | effect on serum-free proliferation (2D) [2] | effect on HGF-induced wound healing (DU145 cells [3]) | effect on IGFR activation (IGFR) | decrease of HGF-induced DU145 spheroid growth (DU145 spheroids) | effect on EGF-mediated wound healing (DU145 cells [5]) | effect on HGF-induced cell scattering (DU145 cells [6]) | effect on HGF-induced invasion (DU145 cells [10]) | effect on EGFR activation (EGFR) | effect on pMet levels in H1993 cells (c-Met [12]) | further results
O=S(=O)(O)c1cc(N=C=S)ccc1C=Cc1ccc(N=C=S)cc1S(=O)(=O)O [DIDS, 4,4′-Diisothiocyanatostilbene-2,2′-disulfonic acid] | slightly higher effective concentrations | ~ 90% | minimal effects | minimal effects | significantly reduced | do not significantly reduce | ~ 60% | minimal effects | able to reduce HGF-induced | reduce HGF-induced wound healing and invasion in a dose-dependent manner | do not significantly reduce | much less significant effects | pIC50 (wild-type c-Met; 200 μM ATP, cell-free, read-out: IC50, wild-type c-Met): 6.52; effect on pMet when given post HGF treatment (c-Met [4]; DU145, 33 ng/ml HGF 20 minutes, 4 μM for 20 or 60 minutes): reduced pMet levels; reversibility of c-Met inhibition after washout (c-Met [4]; DU145, 4 μM 20 minutes, then 33 ng/ml HGF 20 minutes): does not irreversibly bind c-Met; reduction of downstream Akt (Akt): ~ 90%; concentration inhibiting protein translocation across the ER membrane [7]: ≥ 400 µM; pIC50 (c-Met M1250T (M1268T)): 6.43; signs of toxicity ([8]; 5 mg/kg intraperitoneally, ~2 weeks): No obvious signs of toxicity; body weight versus DMSO control ([8]; 5 mg/kg then 10 mg/kg i.p., 3X/week): no change in body weight; tumor size (caliper) ([9]; 3X/week): began to reduce tumor size towards the end of the experiment; tumor weight at necropsy ([9]; versus DMSO control): Differences in overall tumor weight were evident; concentration inhibiting matrix metalloproteinase release [11]: ≥ 400 µM
O=[N+]([O-])c1ccc(C=Cc2ccc([N+](=O)[O-])cc2S(=O)(=O)O)c(S(=O)(=O)O)c1 [DNDS, 4,4′-dinitrostilbene-2,2′-disulfonic acid] | – | – | – | – | – | – | – | – | – | – | – | – | inhibition at 2000 µM (c-Met [1]; DU-145, read-out: inhibition of c-Met): ~90%
O=S(=O)(O)c1cc(N=C=S)ccc1CCc1ccc(N=C=S)cc1S(=O)(=O)O [H2DIDS, 4,4′-Diisothiocyanatodihydrostilbene-2,2′-disulfonic acid] | slightly higher effective concentrations | ~ 90% | minimal effects | minimal effects | significantly reduced | do not significantly reduce | ~ 60% | minimal effects | able to reduce HGF-induced | reduce HGF-induced wound healing and invasion in a dose-dependent manner | do not significantly reduce | much less significant effects | pIC50 (wild-type c-Met): 5.44
CC(=O)Nc1ccc(C=Cc2ccc(N=C=S)cc2S(=O)(=O)O)c(S(=O)(=O)O)c1 [SITS, 4-acetamido-4′-isothiocyanatostilbene-2,2′-disulfonic acid] | – | – | – | – | – | – | – | – | – | – | – | – | inhibition at 250 µM (c-Met [1]; DU-145, DU145, serum-free, 33 ng/ml HGF 20 minutes, 250 μM compound): ~90%
Cc1[nH]c(/C=C2\C(=O)Nc3ccc(S(=O)(=O)N(C)c4cccc(Cl)c4)cc32)c(C)c1C(=O)N1CCN(C)CC1 [SU11274] | – | – | – | – | – | – | – | – | – | – | – | ameliorated pMet levels | reduction of c-Met phosphorylation (wild-type c-Met; 500 nM compound, cell-free kinase assay): ~ 70%
